Consider seven compounds from patent US7018987B1 (priority 1998, dated 2006).

One data set concerns SW1736. The format is cell-based, Human.
In the next data set the test system is Micrococcus luteus. Kind of data set: Disk susceptibility testing, Micrococcus luteus. The format is cell-based.
For another data set, the system named is DU-145. It is filed as cell-based, Human.
A further data set deals with FADU. The format is cell-based, Human.
Data set [1] has as its system P388 lymphocytic leukemia. It is filed as cell-based, Murine.
The next data set relates to NCI-H460. The format is cell-based, Human.
Another data set has as its system BXPC-3. It is filed as cell-based, Human.
The test system of another data set is SK-N-SH. The format is cell-based, Human.
The subject of the next data set is Staphylococcus aureus. The note with it: disk susceptibility.
The test system of the next data set is Enterococcus faecalis. The note with it: disk susceptibility.
Another data set relates to Escherichia coli. The note with it: disk susceptibility.
The next data set has as its system Neisseria gonorrhoeae. It is filed as cell-based.
The subject of data set [2] is Stenotrophomonas maltophilia. To be noted: disk susceptibility.
The test system of data set [3] is eight bacteria and two fungi tested. In words: Disk susceptibility testing, whole microbe panel. The format is cell-based. To be noted: disk susceptibility, bacteria and fungi tested.
The next data set concerns Enterobacter cloacae. To be noted: disk susceptibility.
For the next data set, the system named is Streptococcus pneumoniae. The note with it: disk susceptibility.
A further data set deals with SK-Mel-3. It is filed as cell-based, Human.
A further data set deals with full-panel NCl screen. To be noted: cited from earlier work; for GI50: read-out: mean panel GI50 concentration.
The test system of another data set is tubulin. To be noted: reported (Lin et al., 1988); cited from earlier work.
A further data set relates to Candida albicans. In words: Disk susceptibility testing, Candida albicans. The format is cell-based.
The nature of another data set: Solubility in water. To be noted: for Solubility: mg per 1 ml water at 25° C.
The test system of another data set is Cryptococcus neoformans. In words: Disk susceptibility testing, Cryptococcus neoformans. It is filed as cell-based.
[4] abbreviates: murine P-388 leukemia, 48 hours.
[5] abbreviates: Neisseria gonorrhoeae, disk susceptibility.

In brackets after ≈: the same amount, converted by molar mass. Where two headings read alike, the source gives them in different places.

For `COc1ccc(/C=C/c2cc(OC)c(OC)c(OC)c2)cc1O` [Compound 4a, (E)-combretastatin A-4], the “GI50 Thyroid SW1736” value in the data set with SW1736 (SW1736, 48 hours) amounted to 0.080 µg/mL (≈ 0.253 µM). Moreover, the “Minimum inhibitory amount per disk” value in the data set with Micrococcus luteus is 25–50 μg/disk. In the data set on DU-145 (DU-145, 48 hours), the “GI50 Prostate DU-145” value was found to be 0.037 µg/mL (≈ 0.117 µM). The “GI50 Pharynx FADU” value with FADU (FADU, 48 hours) was determined as 0.040 µg/mL (≈ 0.126 µM). Also, the “ED50 P-388” value in [1] (setting [4]) amounted to 0.280 µg/mL (≈ 0.885 µM). For the same compound, the “GI50 Lung-NSC NCI-H460” value in the data set with NCI-H460 (NCI-H460, 48 hours) was found to be 0.038 µg/mL (≈ 0.12 µM). Further, the “GI50 Pancreas BXPC-3” value with BXPC-3 (BXPC-3, 48 hours) was determined as 3.9 µg/mL (≈ 12.3 µM). For the same compound, in the data set with SK-N-SH (SK-N-SH, 48 hours), the “GI50 Neuroblast SK-N-SH” value came to 0.029 µg/mL (≈ 0.0917 µM).

With `CN(C)C1C(=O)C(C(N)=O)=C(O)C2(O)C(=O)C3=C(O)c4c(O)cccc4C(C)(O)C3CC12.COc1ccc(C=Cc2cc(OC)c(OC)c(OC)c2)cc1OP(=O)(O)O` (stereo not drawn) [Compound 5r, Tetracycline combretastatin A-4 3-O-phosphate], in the data set with SW1736 (SW1736, 48 hours), the “GI50 Thyroid SW1736” value worked out at 0.012 µg/mL. The “Minimum inhibitory amount per disk” value with Micrococcus luteus is recorded as 0.78–1.56 μg/disk; in the data set on Neisseria gonorrhoeae (setting [5]), 3.12–6.25 μg/disk. In addition, the Minimum inhibitory concentration is recorded as 0.195–0.39 μg/disk with Staphylococcus aureus; 25–50 μg/disk in the data set on Enterococcus faecalis; 3.12–6.25 μg/disk in the data set on Escherichia coli; 6.25–12.5 μg/disk in [2]; 3.12–6.25 μg/disk with Enterobacter cloacae; 0.195–0.39 μg/disk in the data set with Streptococcus pneumoniae. In the data set with DU-145 (DU-145, 48 hours), the “GI50 Prostate DU-145” value turned out to be 0.058 µg/mL. The “GI50 Pharynx FADU” value in the data set with FADU (FADU, 48 hours) was 0.0055 µg/mL. For the same compound, the “ED50 P-388” value in [1] (setting [4]) came out at 0.037 µg/mL. In addition, the “GI50 Lung-NSC NCI-H460” value in the data set on NCI-H460 (NCI-H460, 48 hours) is 0.0046 µg/mL. In data set [3], the “antimicrobial growth inhibition (in words)” value is “inhibited the growth of all Gram-negative and Gram-positive bacteria tested”. Further, in the data set with BXPC-3 (BXPC-3, 48 hours), the “GI50 Pancreas BXPC-3” value is 0.57 µg/mL. Besides, the “GI50 Neuroblast SK-N-SH” value in the data set with SK-N-SH (SK-N-SH, 48 hours) is 0.0032 µg/mL.

In the case of “Combretastatin A-4 [Compound 1a, reference compound]”, the “GI50 Thyroid SW1736” value in the data set with SW1736 came to 0.00071 µg/mL. Also, the “GI50 Prostate DU-145” value in the data set with DU-145 was 0.00076 µg/mL. Moreover, in the data set on Neisseria gonorrhoeae, the “Minimum inhibitory amount per disk” value is given as 25–50 μg/disk and the “growth inhibition of Neisseria gonorrhoeae (in words)” value is “inhibited growth”. The “GI50 Pharynx FADU” value in the data set with FADU turned out to be 0.00065 µg/mL. For the same compound, in data set [1], the “ED50 P-388” value was found to be 0.00266 µg/mL. Moreover, in the data set with SK-Mel-3, the “GI50 Melanoma SK-Mel-3” value worked out at 0.0002 µg/mL. Further, the “GI50 Lung-NSC NCI-H460” value with NCI-H460 came to 0.00056 µg/mL. For the same compound, the “GI50 Pancreas BXPC-3” value in the data set on BXPC-3 was above 0.1 µg/mL. The “GI50 Neuroblast SK-N-SH” value in the data set with SK-N-SH came out at 0.00026 µg/mL. The GI50 in the data set with full-panel NCl screen was 6.61 nM. The “inhibition at the colchicine binding site of tubulin” value in the data set on tubulin is on record as 97%.

As to “Manganese combretastatin A-4 3′-O-phosphate [Compound 5e]”, in the data set with SW1736 (SW1736, 48 hours), the “GI50 Thyroid SW1736” value was 14.7 µg/mL. Also, the “GI50 Prostate DU-145” value in the data set with DU-145 (DU-145, 48 hours) is below 0.001 µg/mL. Moreover, the “Minimum inhibitory amount per disk” value in the data set on Neisseria gonorrhoeae (setting [5]) was 6.25–12.5 μg/disk. The Minimum inhibitory concentration in the data set on Candida albicans is recorded as 25–50 μg/disk; in the data set on Cryptococcus neoformans, 12.5–25 μg/disk. Further, the “GI50 Pharynx FADU” value with FADU (FADU, 48 hours) is 0.00091 µg/mL. Besides, the “ED50 P-388” value in data set [1] (setting [4]) amounted to 0.016 µg/mL. The “GI50 Melanoma SK-Mel-3” value with SK-Mel-3 (SK-Mel-3, 48 hours) turned out to be 0.0036 µg/mL. Besides, the “GI50 Lung-NSC NCI-H460” value with NCI-H460 (NCI-H460, 48 hours) came to 0.0015 µg/mL. Moreover, the “antimicrobial growth inhibition (in words)” value in data set [3] is on record as “inhibitory to opportunistic fungi”. Also, the “GI50 Pancreas BXPC-3” value with BXPC-3 (BXPC-3, 48 hours) was determined as 0.20 µg/mL. Moreover, the “Solubility” value in “Solubility in water” amounted to 3000 µg/mL. The “GI50 Neuroblast SK-N-SH” value with SK-N-SH (SK-N-SH, 48 hours) was 0.014 µg/mL.

Regarding “Piperazine combretastatin A-4 3′-O-phosphate [Compound 5i]”, the “GI50 Thyroid SW1736” value in the data set with SW1736 (SW1736, 48 hours) stood at 23.5 µg/mL. The “GI50 Prostate DU-145” value in the data set on DU-145 (DU-145, 48 hours) is 0.0011 µg/mL. Moreover, the “Minimum inhibitory amount per disk” value in the data set with Neisseria gonorrhoeae (setting [5]) is 25–50 μg/disk. The figures for the Minimum inhibitory concentration with Candida albicans and in the data set with Cryptococcus neoformans were 50–100 μg/disk and 25–50 μg/disk, respectively. In the data set on FADU (FADU, 48 hours), the “GI50 Pharynx FADU” value came to 0.0018 µg/mL. Also, the “ED50 P-388” value in data set [1] (setting [4]) was 0.0016 µg/mL. The “GI50 Melanoma SK-Mel-3” value in the data set with SK-Mel-3 (SK-Mel-3, 48 hours) turned out to be 0.0036 µg/mL. The “GI50 Lung-NSC NCI-H460” value in the data set on NCI-H460 (NCI-H460, 48 hours) was found to be 0.0028 µg/mL. Also, in [3], the “antimicrobial growth inhibition (in words)” value is listed as “inhibitory to opportunistic fungi”. For the same compound, in the data set with BXPC-3 (BXPC-3, 48 hours), the “GI50 Pancreas BXPC-3” value was determined as 0.19 µg/mL. Moreover, the “GI50 Neuroblast SK-N-SH” value in the data set with SK-N-SH (SK-N-SH, 48 hours) came out at 0.021 µg/mL.

In the case of “Sodium (E)-combretastatin A-4 3′-O-phosphate [Compound 4c]”, in the data set on SW1736 (SW1736, 48 hours), the “GI50 Thyroid SW1736” value turned out to be 11.2 µg/mL. Further, the “GI50 Prostate DU-145” value with DU-145 (DU-145, 48 hours) is 0.044 µg/mL. Besides, the “Minimum inhibitory amount per disk” value in the data set on Neisseria gonorrhoeae (setting [5]) is 50–100 μg/disk. In addition, in the data set on FADU (FADU, 48 hours), the “GI50 Pharynx FADU” value is 0.071 µg/mL. In addition, the “ED50 P-388” value in [1] (setting [4]) was found to be 0.02 µg/mL. In addition, the “GI50 Melanoma SK-Mel-3” value with SK-Mel-3 (SK-Mel-3, 48 hours) was 0.036 µg/mL. Further, in the data set on NCI-H460 (NCI-H460, 48 hours), the “GI50 Lung-NSC NCI-H460” value turned out to be 0.038 µg/mL. Further, the “GI50 Pancreas BXPC-3” value in the data set with BXPC-3 (BXPC-3, 48 hours) came out at 4.0 µg/mL. Further, the “Solubility” value in “Solubility in water” is 4000 µg/mL. Further, in the data set “Solubility in water” (water), the “solubility in water (in words)” value is “sparingly soluble in water”. Further, the “GI50 Neuroblast SK-N-SH” value in the data set on SK-N-SH (SK-N-SH, 48 hours) came to 3.1 µg/mL.

In the case of “Sodium (Z)-combretastatin A-4 3′-O-phosphate [Compound 3d]”, in the data set with SW1736 (SW1736, 48 hours), the “GI50 Thyroid SW1736” value stood at 0.0061 µg/mL. Moreover, in the data set with DU-145 (DU-145, 48 hours), the “GI50 Prostate DU-145” value is 0.0072 µg/mL. Besides, the “Minimum inhibitory amount per disk” value in the data set on Neisseria gonorrhoeae (setting [5]) was 50–100 μg/disk. The “growth inhibition of Neisseria gonorrhoeae (in words)” value with Neisseria gonorrhoeae (disk susceptibility) was “inhibited growth”. Also, the “GI50 Pharynx FADU” value with FADU (FADU, 48 hours) is 0.0045 µg/mL. Also, the “ED50 P-388” value in data set [1] (setting [4]) turned out to be 0.00292 µg/mL. Besides, the “GI50 Lung-NSC NCI-H460” value in the data set on NCI-H460 (NCI-H460, 48 hours) came to 0.0035 µg/mL. For the same compound, in the data set with BXPC-3 (BXPC-3, 48 hours), the “GI50 Pancreas BXPC-3” value turned out to be 0.23 µg/mL. Besides, in “Solubility in water”, the “Solubility” value worked out at 20000 µg/mL. Also, in the data set with SK-N-SH (SK-N-SH, 48 hours), the “GI50 Neuroblast SK-N-SH” value is 0.0025 µg/mL. In the data set with full-panel NCl screen (full-panel NCI screen, previously reported), the “Pearson correlation coefficient, TGI-COMPARE differential cytotoxicity profile versus combretastatin A-4 1a” value is 0.91. In addition, the GI50 in the data set with full-panel NCl screen (full-panel NCI screen, quadruplicate, three concentration ranges, previously reported) is 6.89 nM.

In general, inhibition refers to the percentage by which the read-out fell short of the control. Broadly, the Solubility is the concentration that dissolves in the medium under given conditions.
